Reference: patent US20240108006A1, “PESTICIDALLY ACTIVE HETEROAROMATIC COMPOUNDS” (SYNGENTA CROP PROTECTION AG, priority 2021, published 2024)

Columns and labels:
Type in all cases: in vivo
[1] = tested on: Chilo suppressalis; assay: Example B1: Chilo suppressalis (striped rice stemborer), artificial diet, L2 larvae; conditions: 144 h, application rate of 200 ppm, 6 days after infestation, read-out: control in at least one of the three categories (mortality, anti-feedant effect, or growth inhibition)
Summary of the method: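 Artificial diet was treated with aqueous test solutions made from 10,000 ppm DMSO stocks, dried, then infested with L2 larvae (6-8 per well). Mortality, anti-feeding effect and growth inhibition were scored against untreated samples 6 days after infestation, and control was counted when any category exceeded untreated.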

[2] = tested on: Diabrotica balteata; assay: Example B2: Diabrotica balteata (corn root worm), maize sprouts, L2 larvae; conditions: 96 h, application rate of 200 ppm, 4 days after infestation, read-out: control in at least one of the two categories (mortality or growth inhibition)
Method: Example B2: Diabrotica balteata (Corn Root Worm)
Maize sprouts placed onto an agar layer in 24-well microtiter plates were treated with aqueous test solutions prepared from 10,000 ppm DMSO stock solutions by spraying. After drying, the plates were infested with L2 larvae (6 to 10 per well). The samples were assessed for mortality and growth inhibition in comparison to untreated samples 4 days after infestation.
The following compounds gave an effect of at least 80% control in at least one of the two categories (mortality or growth inhibition) at an application rate of 200 ppm: […]

[3] = tested on: Myzus persicae; assay: Example B5: Myzus persicae (green peach aphid), feeding/contact activity; conditions: 144 h, application rate of 200 ppm, 6 days after infestation
Method: Example B5: Myzus persicae (Green Peach Aphid):Feeding/Contact Activity
Sunflower leaf discs were placed onto agar in a 24-well microtiter plate and sprayed with aqueous test solutions prepared from 10,000 ppm DMSO stock solutions. After drying, the leaf discs were infested with an aphid population of mixed ages. The samples were assessed for mortality 6 days after infestation.

[4] = tested on: Myzus persicae; assay: Example B7: Myzus persicae (green peach aphid), intrinsic activity, sucrose solution 24-well; conditions: 120 h, application rate of 12.5 ppm, 5 days after infestation, read-out: control (mortality)
From the text: Example B7: Myzus persicae (Green Peach Aphid). Intrinsic Activity
Test compounds prepared from 10,000 ppm DMSO stock solutions were applied by pipette into 24-well microtiter plates and mixed with sucrose solution. The plates were closed with a stretched Parafilm. A plastic stencil with 24 holes was placed onto the plate and infested pea seedlings were placed directly on the Parafilm. The infested plate was closed with a gel blotting paper and another plastic stencil and then turned upside down. The samples were assessed for mortality 5 days after infestation.
The following compounds gave an effect of at least 80% control at an application rate of 12.5 ppm: […]

[5] = tested on: Plutella xylostella; assay: Example B8: Plutella xylostella (diamond back moth), artificial diet 24-well, eggs; conditions: 192 h, application rate of 200 ppm, 8 days after infestation, read-out: effect in at least one of the two categories (mortality or growth inhibition)
Summary of the method: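 Artificial diet in 24-well plates treated with aqueous dilutions of DMSO stock (10,000 ppm stock) and dried, then infested with Plutella eggs. Mortality and growth inhibition scored versus untreated samples 8 days after infestation.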

[6] = tested on: Spodoptera littoralis; assay: Example B9: Spodoptera littoralis (Egyptian cotton leaf worm), cotton leaf discs, L1 larvae; conditions: foliar, 72 h, application rate of 200 ppm, 3 days after infestation, read-out: control in at least one of the three categories (mortality, anti-feedant effect, or growth inhibition)
Summary of the method: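 Cotton leaf discs on agar sprayed with aqueous test solutions from 10,000 ppm DMSO stocks, dried, then infested with five L1 larvae. Mortality, anti-feeding and growth inhibition scored against untreated samples 3 days after infestation.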

C[C@H](NC(=O)N(C)c1cc(OC(F)(F)C(F)F)c(Cl)cc1Cl)c1ncnn1-c1ncccn1 [Example P176, 1-[2,4-dichloro-5-(1,1,2,2-tetrafluoroethoxy)phenyl]-1-methyl-3-[(1S)-1-(2-pyrimidin-2-yl-1,2,4-triazol-3-yl)ethyl]urea]
≥ 80%: percent control (mortality, anti-feedant effect or growth inhibition) at 200 ppm [1] | percent control (mortality or growth inhibition) at 200 ppm [2] | mortality at 200 ppm [3] | mortality at 12.5 ppm [4] | percent effect (mortality or growth inhibition) at 200 ppm [5] | percent control (mortality, anti-feedant effect or growth inhibition) at 200 ppm [6]

C[C@@H](c1ncnn1-c1ncccn1)N1COCN(c2cc(OC(F)(F)C(F)F)c(Cl)cc2Cl)C1=O [Example P137, 3-[2,4-dichloro-5-(1,1,2,2-tetrafluoroethoxy)phenyl]-5-[(1S)-1-(2-pyrimidin-2-yl-1,2,4-triazol-3-yl)ethyl]-1,3,5-oxadiazinan-4-one]
≥ 80%: percent control (mortality, anti-feedant effect or growth inhibition) at 200 ppm [1] | percent control (mortality or growth inhibition) at 200 ppm [2] | mortality at 200 ppm [3] | mortality at 12.5 ppm [4] | percent effect (mortality or growth inhibition) at 200 ppm [5] | percent control (mortality, anti-feedant effect or growth inhibition) at 200 ppm [6]

C[C@H](NC(=O)Nc1ccnn1-c1ccc(Cl)cn1)c1ncnn1-c1ncccn1 [Example P17, 1-[2-(5-chloro-2-pyridyl)pyrazol-3-yl]-3-[(1S)-1-(2-pyrimidin-2-yl-1,2,4-triazol-3-yl)ethyl]urea]
≥ 80%: mortality at 200 ppm [3]

C[C@H](NC(=O)Nc1cc(C(C)(C)C#N)c(Cl)cc1F)c1ncnn1-c1ncccn1 [Example P202, 1-[4-chloro-5-(1-cyano-1-methyl-ethyl)-2-fluoro-phenyl]-3-[(1S)-1-(2-pyrimidin-2-yl-1,2,4-triazol-3-yl)ethyl]urea]
≥ 80%: percent control (mortality, anti-feedant effect or growth inhibition) at 200 ppm [1] | mortality at 200 ppm [3] | mortality at 12.5 ppm [4] | percent effect (mortality or growth inhibition) at 200 ppm [5] | percent control (mortality, anti-feedant effect or growth inhibition) at 200 ppm [6]

C[C@H](NC(=O)Nc1cc(OC(F)(F)C(F)F)c(Cl)cc1Cl)c1ncnn1-c1cnccn1 [Example P278, 1-[2,4-dichloro-5-(1,1,2,2-tetrafluoroethoxy)phenyl]-3-[(1S)-1-(2-pyrazin-2-yl-1,2,4-triazol-3-yl)ethyl]urea]
≥ 80%: percent control (mortality, anti-feedant effect or growth inhibition) at 200 ppm [1] | percent control (mortality or growth inhibition) at 200 ppm [2] | mortality at 200 ppm [3] | mortality at 12.5 ppm [4] | percent effect (mortality or growth inhibition) at 200 ppm [5] | percent control (mortality, anti-feedant effect or growth inhibition) at 200 ppm [6]

C[C@H](NC(=O)Nc1cc(C(F)(F)F)c(Br)cc1Br)c1ncnn1-c1ncccn1 [Example P205, 1-[2,4-dibromo-5-(trifluoromethyl)phenyl]-3-[(1S)-1-(2-pyrimidin-2-yl-1,2,4-triazol-3-yl)ethyl]urea]
≥ 80%: percent control (mortality, anti-feedant effect or growth inhibition) at 200 ppm [1] | percent control (mortality or growth inhibition) at 200 ppm [2] | mortality at 200 ppm [3] | mortality at 12.5 ppm [4] | percent effect (mortality or growth inhibition) at 200 ppm [5] | percent control (mortality, anti-feedant effect or growth inhibition) at 200 ppm [6]

C[C@H](NC(=O)Nc1cc(OCc2cccc(Br)n2)c(Cl)cc1Cl)c1ncnn1-c1ncccn1 [Example P145, 1-[5-[(6-bromo-2-pyridyl)methoxy]-2,4-dichloro-phenyl]-3-[(1S)-1-(2-pyrimidin-2-yl-1,2,4-triazol-3-yl)ethyl]urea]
≥ 80%: mortality at 200 ppm [3]

C[C@H](NC(=O)Nc1cc(C(F)(F)F)cc(C(F)(F)F)n1)c1ncnn1-c1ncccn1 [Example P91, 1-[4,6-bis(trifluoromethyl)-2-pyridyl]-3-[(1S)-1-(2-pyrimidin-2-yl-1,2,4-triazol-3-yl)ethyl]urea]
≥ 80%: mortality at 200 ppm [3]

C[C@H](NC(=O)Nc1ccc(Cl)c(OC(F)(F)C(F)F)c1)c1ncnn1-c1ncccn1 [Example P35, 1-[4-chloro-3-(1,1,2,2-tetrafluoroethoxy)phenyl]-3-[(1S)-1-(2-pyrimidin-2-yl-1,2,4-triazol-3-yl)ethyl]urea]
≥ 80%: percent control (mortality, anti-feedant effect or growth inhibition) at 200 ppm [1] | percent control (mortality or growth inhibition) at 200 ppm [2] | mortality at 12.5 ppm [4] | percent effect (mortality or growth inhibition) at 200 ppm [5] | percent control (mortality, anti-feedant effect or growth inhibition) at 200 ppm [6]

Cc1cc(F)c(OS(C)(=O)=O)cc1NC(=O)N[C@@H](C)c1ncnn1-c1ncccn1 [Example P181, [2-fluoro-4-methyl-5-[[(1S)-1-(2-pyrimidin-2-yl-1,2,4-triazol-3-yl)ethyl]carbamoylamino]phenyl] methanesulfonate]
≥ 80%: percent control (mortality, anti-feedant effect or growth inhibition) at 200 ppm [1] | mortality at 200 ppm [3] | mortality at 12.5 ppm [4]

COc1cc(Cl)c(NC(=O)N[C@@H](C)c2ncnn2-c2ncccn2)cc1Cl [Example P204, 1-(2,5-dichloro-4-methoxy-phenyl)-3-[(1S)-1-(2-pyrimidin-2-yl-1,2,4-triazol-3-yl)ethyl]urea]
≥ 80%: mortality at 200 ppm [3]

C[C@H](NC(=O)Nc1cc(OC(F)(F)F)c(Cl)cc1F)c1ncnn1-c1ncccn1 [Example P214, 1-[4-chloro-2-fluoro-5-(trifluoromethoxy)phenyl]-3-[(1S)-1-(2-pyrimidin-2-yl-1,2,4-triazol-3-yl)ethyl]urea]
≥ 80%: percent control (mortality, anti-feedant effect or growth inhibition) at 200 ppm [1] | percent control (mortality or growth inhibition) at 200 ppm [2] | mortality at 12.5 ppm [4] | percent effect (mortality or growth inhibition) at 200 ppm [5] | percent control (mortality, anti-feedant effect or growth inhibition) at 200 ppm [6]

C[C@H](NC(=O)Nc1cc2c(cc1Cl)C(=O)N(C)C2=O)c1ncnn1-c1ncccn1 [Example P207, 1-(6-chloro-2-methyl-1,3-dioxo-isoindolin-5-yl)-3-[(1S)-1-(2-pyrimidin-2-yl-1,2,4-triazol-3-yl)ethyl]urea]
≥ 80%: mortality at 200 ppm [3]

CC(NC(=O)Nc1cc(OC(F)(F)C(F)F)c(Cl)cc1Cl)c1ncnn1-c1ncccn1 (centres unmarked) [Example P177, 1-[2,4-dichloro-5-(1,1,2,2-tetrafluoroethoxy)phenyl]-3-[1-(2-pyrimidin-2-yl-1,2,4-triazol-3-yl)ethyl]urea]
≥ 80%: percent control (mortality, anti-feedant effect or growth inhibition) at 200 ppm [1] | percent control (mortality or growth inhibition) at 200 ppm [2] | mortality at 12.5 ppm [4] | percent effect (mortality or growth inhibition) at 200 ppm [5] | percent control (mortality, anti-feedant effect or growth inhibition) at 200 ppm [6]

C[C@H](NC(=O)Nc1cc(C(F)(F)F)c(Cl)cc1Cl)c1ncnn1-c1ncccn1 [Example P178, 1-[2,4-dichloro-5-(trifluoromethyl)phenyl]-3-[(1S)-1-(2-pyrimidin-2-yl-1,2,4-triazol-3-yl)ethyl]urea]
≥ 80%: percent control (mortality, anti-feedant effect or growth inhibition) at 200 ppm [1] | percent control (mortality or growth inhibition) at 200 ppm [2] | mortality at 12.5 ppm [4] | percent effect (mortality or growth inhibition) at 200 ppm [5] | percent control (mortality, anti-feedant effect or growth inhibition) at 200 ppm [6]

COc1ccc(COc2cc(NC(=O)N[C@@H](C)c3ncnn3-c3ncccn3)c(Cl)cc2Cl)cc1F [Example P168, 1-[2,4-dichloro-5-[(3-fluoro-4-methoxy-phenyl)methoxy]phenyl]-3-[(1S)-1-(2-pyrimidin-2-yl-1,2,4-triazol-3-yl)ethyl]urea]
≥ 80%: mortality at 200 ppm [3]

C[C@H](NC(=O)Nc1cc(C(F)(F)F)n(C)n1)c1ncnn1-c1ncccn1 [Example P108, 1-[1-methyl-5-(trifluoromethyl)pyrazol-3-yl]-3-[(1S)-1-(2-pyrimidin-2-yl-1,2,4-triazol-3-yl)ethyl]urea]
≥ 80%: mortality at 200 ppm [3]

C[C@H](NC(=O)Nc1cc(C(F)(F)F)ncn1)c1ncnn1-c1ncccn1 [Example P32, 1-[(1S)-1-(2-pyrimidin-2-yl-1,2,4-triazol-3-yl)ethyl]-3-[6-(trifluoromethyl)pyrimidin-4-yl]urea]
≥ 80%: mortality at 200 ppm [3]

C[C@H](NC(=O)Nc1cnc(C(F)(F)F)cc1Cl)c1ncnn1-c1ccc(C#N)cn1 [Example P257, 1-[4-chloro-6-(trifluoromethyl)-3-pyridyl]-3-[(1S)-1-[2-(5-cyano-2-pyridyl)-1,2,4-triazol-3-yl]ethyl]urea]
≥ 80%: percent control (mortality, anti-feedant effect or growth inhibition) at 200 ppm [1] | percent control (mortality or growth inhibition) at 200 ppm [2] | mortality at 12.5 ppm [4] | percent effect (mortality or growth inhibition) at 200 ppm [5] | percent control (mortality, anti-feedant effect or growth inhibition) at 200 ppm [6]
